Measured values published in patent US12473296B2, “Perk inhibiting compounds” (HiberCell, Inc., priority 2019, dated 2025).

Columns and labels:
[1] = target: EIF2AK3 (PERK) catalytic domain (amino acids 536-1116) (Homo sapiens (Human), UniProt Q9NZJ5); test: PERK in vitro activity assay (isolated), TR-FRET kinase assay; details: isolated PERK enzyme, 1.5 μM ATP, GFP-eIF2a substrate; read-out: Biochemical IC50
Summary of the method: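 Human PERK catalytic domain (aa 536-1116) with 100-200 nM GFP-eIF2a in 50 mM HEPES pH 7.5, 10 mM MgCl2, 1.0 mM EGTA, 0.01% Brij-35; enzyme-started reaction run 45 min at room temperature. Stopped with 10 mM EDTA, 2 nM Tb-anti-phospho-eIF2a added for 90 min; IC50 from TR-FRET ratio by 4-parameter logistic fit.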

[2] = target: PERK (Homo sapiens (Human), UniProt Q9NZJ5); test: PERK cellular assay (TR-FRET, HEK293-EGFP-eIF2α cells, tunicamycin-induced ER stress); assay type: cell-based; details: tunicamycin 2 hours, read-out: Cellular IC50 (μM) (EIF2a)
Summary of the method: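 After 2 h tunicamycin ([…]) stress following 30 min compound pretreatment at 37 °C, lysed HEK293-EGFP-eIF2α cells were read by TR-FRET. IC50 derived by 4-parameter logistic fitting of percent inhibition, DMSO-normalized, from 10-point 3-fold dilutions.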

Sequence of EIF2AK3 (PERK) catalytic domain (amino acids 536-1116) (Q9NZJ5 536-1116): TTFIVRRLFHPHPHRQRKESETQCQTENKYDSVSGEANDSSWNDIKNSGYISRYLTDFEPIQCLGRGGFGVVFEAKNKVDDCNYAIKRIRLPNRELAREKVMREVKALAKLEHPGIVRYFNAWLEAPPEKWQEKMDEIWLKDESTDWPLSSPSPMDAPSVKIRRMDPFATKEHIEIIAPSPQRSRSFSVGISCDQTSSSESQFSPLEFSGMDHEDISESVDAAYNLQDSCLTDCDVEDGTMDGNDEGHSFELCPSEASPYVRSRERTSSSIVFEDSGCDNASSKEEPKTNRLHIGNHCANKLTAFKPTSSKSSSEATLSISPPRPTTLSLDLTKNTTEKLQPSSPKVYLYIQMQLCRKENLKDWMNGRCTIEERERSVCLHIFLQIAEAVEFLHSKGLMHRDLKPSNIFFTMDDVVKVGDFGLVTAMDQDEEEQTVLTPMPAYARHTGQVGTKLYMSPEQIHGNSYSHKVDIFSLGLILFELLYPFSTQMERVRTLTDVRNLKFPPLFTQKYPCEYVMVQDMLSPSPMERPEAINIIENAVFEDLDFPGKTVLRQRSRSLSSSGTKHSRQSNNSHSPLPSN
Sequence of PERK (Q9NZJ5 30-1116): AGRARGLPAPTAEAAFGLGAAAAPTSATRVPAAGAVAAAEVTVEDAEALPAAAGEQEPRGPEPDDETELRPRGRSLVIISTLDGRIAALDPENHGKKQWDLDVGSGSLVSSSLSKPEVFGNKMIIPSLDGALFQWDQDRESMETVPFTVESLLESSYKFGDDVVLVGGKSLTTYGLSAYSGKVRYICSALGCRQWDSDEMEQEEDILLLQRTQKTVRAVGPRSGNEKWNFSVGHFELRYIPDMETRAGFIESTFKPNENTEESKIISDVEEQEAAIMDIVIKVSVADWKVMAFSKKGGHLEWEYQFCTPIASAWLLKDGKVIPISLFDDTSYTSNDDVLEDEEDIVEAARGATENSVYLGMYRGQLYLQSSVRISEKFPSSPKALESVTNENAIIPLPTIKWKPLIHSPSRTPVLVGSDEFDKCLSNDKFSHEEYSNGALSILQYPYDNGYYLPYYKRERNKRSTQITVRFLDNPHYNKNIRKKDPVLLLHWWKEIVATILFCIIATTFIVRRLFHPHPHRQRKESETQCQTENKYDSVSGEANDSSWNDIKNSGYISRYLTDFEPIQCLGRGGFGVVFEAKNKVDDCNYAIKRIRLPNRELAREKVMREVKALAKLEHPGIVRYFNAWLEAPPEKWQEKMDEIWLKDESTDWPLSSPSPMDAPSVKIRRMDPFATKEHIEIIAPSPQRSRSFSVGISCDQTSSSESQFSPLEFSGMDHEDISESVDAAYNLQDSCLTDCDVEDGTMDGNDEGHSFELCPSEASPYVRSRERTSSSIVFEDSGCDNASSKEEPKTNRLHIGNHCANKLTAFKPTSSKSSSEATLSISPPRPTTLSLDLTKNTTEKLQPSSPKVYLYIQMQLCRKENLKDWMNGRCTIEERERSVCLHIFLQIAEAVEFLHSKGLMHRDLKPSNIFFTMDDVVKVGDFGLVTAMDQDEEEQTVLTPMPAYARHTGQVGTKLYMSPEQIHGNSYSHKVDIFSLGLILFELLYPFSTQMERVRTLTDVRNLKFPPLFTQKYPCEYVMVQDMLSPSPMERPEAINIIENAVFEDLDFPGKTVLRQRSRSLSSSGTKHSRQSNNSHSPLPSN

SMILES	IC50 [1]	IC50 [2]
Cc1cc(NC(=O)Cc2ccccc2)ccc1-c1cnc(N)c(C(=O)NC(C)C)c1 [Example 187, 2-amino-N-isopropyl-5-(2-methyl-4-(2-phenylacetamido)phenyl)nicotinamide]	51 to 100 nM	0.501 to 1 µM
Cc1cc(NC(=O)CCc2ccccc2)ccc1-c1cnc(N)c(C(=O)NC(C)C)c1 [Example 188, 2-amino-N-isopropyl-5-(2-methyl-4-(3-phenylpropanamido)phenyl) nicotinamide]	251 to 500 nM	2 to 3 µM
Cc1cc(NC(=O)Cc2ccccc2F)ccc1-c1cnc(N)c(C(=O)NC(C)C)c1 [Example 189, 2-amino-5-(4-(2-(2-fluorophenyl)acetamido)-2-methylphenyl)-N-isopropylnicotinamide]	101 to 250 nM	0.501 to 1 µM
Cc1cc(NC(=O)Cc2ccc(F)cc2)ccc1-c1cnc(N)c(C(=O)NC(C)C)c1 [Example 191, 2-amino-5-(4-(2-(4-fluorophenyl)acetamido)-2-methylphenyl)-N-isopropylnicotinamide]	51 to 100 nM	1 to 2 µM
COc1ccccc1CC(=O)Nc1ccc(-c2cnc(N)c(C(=O)NC(C)C)c2)c(C)c1 [Example 192, 2-amino-N-isopropyl-5-(4-(2-(2-methoxyphenyl)acetamido)-2-methylphenyl) nicotinamide]	101 to 250 nM	2 to 3 µM
COc1ccc(CC(=O)Nc2ccc(-c3cnc(N)c(C(=O)NC(C)C)c3)c(C)c2)cc1 [Example 194, 2-amino-N-isopropyl-5-(4-(2-(4-methoxyphenyl)acetamido)-2-methylphenyl) nicotinamide]	501 to 1000 nM	2 to 3 µM
Cc1ccc(CC(=O)Nc2ccc(-c3cnc(N)c(C(=O)NC(C)C)c3)c(C)c2)cc1 [Example 197, 2-amino-N-isopropyl-5-(2-methyl-4-(2-(p-tolyl)acetamido)phenyl)nicotinamide]	101 to 250 nM	1 to 2 µM
Cc1cc(NC(=O)Cc2ccc(Cl)cc2)ccc1-c1cnc(N)c(C(=O)NC(C)C)c1 [Example 200, 2-amino-5-(4-(2-(4-chlorophenyl)acetamido)-2-methylphenyl)-N-isopropylnicotinamide]	501 to 1000 nM	0.501 to 1 µM

Second part, the compound after the results:

IC50 [1]	IC50 [2]	SMILES
1 to 25 nM	0.251 to 0.5 µM	Cc1cccc(CC(=O)Nc2ccc(-c3cnc(N)c(C(=O)NC(C)C)c3)c(C)c2)n1 [Example 185, 2-amino-N-isopropyl-5-(2-methyl-4-(2-(6-methylpyridin-2-yl)acetamido)phenyl)nicotinamide]
51 to 100 nM	0.101 to 0.25 µM	Cc1cc(NC(=O)Cc2cc(F)cc(F)c2)ccc1-c1cnc(N)c(C(=O)NC(C)C)c1 [Example 186, 2-amino-5-(4-(2-(3,5-difluorophenyl)acetamido)-2-methylphenyl)-N-isopropylnicotinamide]
51 to 100 nM	0.501 to 1 µM	Cc1cc(NC(=O)Cc2cccc(F)c2)ccc1-c1cnc(N)c(C(=O)NC(C)C)c1 [Example 190, 2-amino-5-(4-(2-(3-fluorophenyl)acetamido)-2-methylphenyl)-N-isopropylnicotinamide]
51 to 100 nM	0.501 to 1 µM	COc1cccc(CC(=O)Nc2ccc(-c3cnc(N)c(C(=O)NC(C)C)c3)c(C)c2)c1 [Example 193, 2-amino-N-isopropyl-5-(4-(2-(3-methoxyphenyl)acetamido)-2-methylphenyl) nicotinamide]
26 to 50 nM	0.501 to 1 µM	Cc1cc(NC(=O)Cc2ccccc2Cl)ccc1-c1cnc(N)c(C(=O)NC(C)C)c1 [Example 198, 2-amino-5-(4-(2-(2-chlorophenyl)acetamido)-2-methylphenyl)-N-isopropylnicotinamide]
26 to 50 nM	0.101 to 0.25 µM	Cc1cc(NC(=O)Cc2cccc(Cl)c2)ccc1-c1cnc(N)c(C(=O)NC(C)C)c1 [Example 199, 2-amino-5-(4-(2-(3-chlorophenyl)acetamido)-2-methylphenyl)-N-isopropylnicotinamide]
